Source: patent US20020169101A1, “Treatment of sexual dysfunction” (priority 1999, published 2002)

Experiments:
human NMB receptor (BB1) = biological target: T1, human NMB receptor (BB1) (Homo sapiens, UniProt P28336); experiment: BB1 binding assay ([125I][Tyr4]bombesin displacement, CHO-K1 membranes); conditions: for Ki: Table 1, human NMB receptor binding affinity, Ki from IC50 by Cheng-Prusoff, read-out: NMB Ki
T1 construct: expressed in transfected cells; membranes prepared from the cells
Outline: (§1)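 Competition against <0.1 nM [125I][Tyr4]bombesin, 60 min for the NMB receptor and 90 min for the GRP receptor, using homogenised membranes of human-receptor-expressing CHO-K1 cells in pH 7.4 Tris buffer. Bound label was filtered and gamma-counted, with 1 μM bombesin as nonspecific. Ki values came from IC50 via Cheng-Prusoff.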

human GRP receptor (BB2) = biological target: T2, human GRP receptor (BB2) (Homo sapiens, UniProt P30550); experiment: BB2 binding assay ([125I][Tyr4]bombesin displacement, CHO-K1 membranes); conditions: for Ki: Table 1, human GRP receptor binding affinity, Ki from IC50 by Cheng-Prusoff, read-out: GRP Kj
T2 construct: expressed in transfected cells; membranes prepared from the cells
Outline: as §1

[1] = Table 3, N-acyl derivatives of Intermediate III-7
[2] = second 'TABLE 4', N-terminal urethane derivatives of Intermediate III-7

T1 sequence (P28336 whole entry): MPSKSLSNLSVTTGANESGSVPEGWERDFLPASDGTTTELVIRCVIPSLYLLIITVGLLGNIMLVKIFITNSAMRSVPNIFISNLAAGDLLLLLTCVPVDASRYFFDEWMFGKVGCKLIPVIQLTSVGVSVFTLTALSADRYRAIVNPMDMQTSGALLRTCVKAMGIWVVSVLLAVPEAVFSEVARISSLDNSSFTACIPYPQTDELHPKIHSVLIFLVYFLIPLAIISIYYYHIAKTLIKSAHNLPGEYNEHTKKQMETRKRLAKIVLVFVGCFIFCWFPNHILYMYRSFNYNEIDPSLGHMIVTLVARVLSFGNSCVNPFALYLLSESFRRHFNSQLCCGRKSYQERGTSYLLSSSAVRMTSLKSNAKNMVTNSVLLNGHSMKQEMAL
T2 sequence (P30550 whole entry): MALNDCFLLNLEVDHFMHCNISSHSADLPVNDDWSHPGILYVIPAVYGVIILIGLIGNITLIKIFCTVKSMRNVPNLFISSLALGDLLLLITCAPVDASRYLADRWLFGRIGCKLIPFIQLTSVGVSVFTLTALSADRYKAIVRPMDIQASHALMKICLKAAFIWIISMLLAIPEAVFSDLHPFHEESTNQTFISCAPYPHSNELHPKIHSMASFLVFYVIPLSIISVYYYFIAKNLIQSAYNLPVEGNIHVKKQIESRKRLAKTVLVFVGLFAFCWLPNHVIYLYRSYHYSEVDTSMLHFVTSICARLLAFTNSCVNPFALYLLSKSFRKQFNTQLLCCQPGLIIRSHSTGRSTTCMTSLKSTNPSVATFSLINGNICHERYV

| SMILES | Ki (human NMB receptor (BB1)) [µM] | melting point [°C] | IC50 (human NMB receptor (BB1); [1]) [µM] | IC50 (human GRP receptor (BB2); [1]) [µM] | further results |
| --- | --- | --- | --- | --- | --- |
| Cc1cccc(N[C@@](C)(Cc2c[nH]c3ccccc23)C(=O)NCC2(c3ccccn3)CCCCC2)c1 [Example 22, (S)-3-(1H-Indol-3-yl)-2-methyl-N-(1-pyridin-2-yl-cyclohexylmethyl)-2-m-tolylamino-propionamide] | 0.653 | 70 to 75 |  |  |  |
| COc1ccc(C2(CNC(=O)[C@](C)(Cc3c[nH]c4ccccc34)Nc3nc(-c4ccc([N+](=O)[O-])cc4)cs3)CCCCC2)nc1 [Example 16] | 0.015 | 110 to 114 |  |  |  |
| O=C(NCC1(c2ccccn2)CCCCC1)[C@@H](Cc1ccccc1)Nc1ccccc1 [Example 24, (R)-3-Phenyl-2-phenylamino-N-[1 1-pyridin-2-yl-cyclohexylmethyl)-propionamide] | 0.137 | 113 to 115 |  |  |  |
| C[C@@](Cc1c[nH]c2ccccc12)(Nc1cncnc1)C(=O)NCC1(c2ccccn2)CCCCC1 [Example 20, (S)-3-(1H-Indol-3-yl)-2-methyl-N-(1-pyridin-2-yl-cyclohexylmethyl)-2-(pyrimidin-5-ylamino)-propionamide] | 3.16 | 95 to 98 |  |  |  |
| C[C@@](Cc1c[nH]c2ccccc12)(Nc1nc2ccccc2o1)C(=O)NCC1(c2ccccn2)CCCCC1 [Example 17, (S)-2-(Benzooxazol-2-ylamino)-3-(1H-indol-3-yl)-2-methyl-N-(1-pyridin-2-yl-cyclohexylmethyl)-propionamide] | 2.08 | 198 to 200 |  |  |  |
| COc1ccc(C2(CNC(=O)[C@](C)(Cc3c[nH]c4ccccc34)Nc3nc(-c4ccccc4)co3)CCCCC2)nc1 [Example 14, (S)-3-(1H-Indol-3-yl)-N-[1-(5-methoxy-pyridin-2-yl)-cyclohexylmethyl]-2-methyl-2-(4-phenyl-oxazol-2-ylamino)-propionamide] | 0.106 | 85 to 90 |  |  | Ki (human GRP receptor (BB2)): 1.19 µM |
| COCC1(CNC(=O)[C@](C)(Cc2c[nH]c3ccccc23)Nc2nc(-c3ccc([N+](=O)[O-])cc3)co2)CCCCC1 [Example 10, (S)-3-(1H-Indol-3-yl)-N-(1-methoxymethyl-cyclohexylmethyl)-2-methyl-2-[4-(4-nitro-phenyl)-oxazol-2-ylamino]-propionamide] | 0.469 | 189 to 192 |  |  |  |
| C[C@@](Cc1c[nH]c2ccccc12)(Nc1ccncc1)C(=O)NCC1(c2ccccn2)CCCCC1 [Example 18, (S)-3-(1H-Indol-3-yl)-2-methyl-2-(pyridin-4-ylamino)-N-(1-pyridin-2-yl-cyclohexylmethyl)-propionamide] | 0.303 | 180 to 195 |  |  |  |
| COc1ccc(C2(CNC(=O)[C@](C)(Cc3c[nH]c4ccccc34)Nc3nc(-c4ccc(C#N)cc4)co3)CCCCC2)nc1 [Example 13, (S)-2-[4-(4-Cyano-phenyl)-oxazol-2-ylamino]-3-(1H-indol-3-yl)-N-[1-(5-methoxy-pyridin-2-yl)-cyclohexylmethyl]-2-methyl-propionamide] | 0.019 | 105 to 108 |  |  | Ki (human GRP receptor (BB2)): 1.39 µM |
| C[C@@](Cc1c[nH]c2ccccc12)(Nc1cncc2ccccc12)C(=O)NCC1(c2ccccn2)CCCCC1 [Example 19, (S)-3-(1H-Indol-3-yl)-2-(isoquinolin-4-ylamino)-2-methyl-N-(1-pyridin-2-yl-cyclohexylmethyl)-propionamide] | 1.25 | 98 to 101 |  |  |  |
| C[C@@](Cc1c[nH]c2ccccc12)(NC(=O)OCc1ccc(Cl)cc1)C(=O)NCC1(c2ccccn2)CCCCC1 [Example 93, {(S)-2-(1H-Indol-3-yl)-1-methyl-1-[(1-pyridin-2-yl-cyclohexylmethyl)-carbamoyl]-ethyl}-carbamic acid 4-chloro-benzyl ester] |  |  |  |  | IC50 (human NMB receptor (BB1); [2]): 0.681 µM; IC50 (human GRP receptor (BB2); [2]): > 10 µM |
| C[C@@](Cc1c[nH]c2ccccc12)(NC(=O)OC1Cc2ccccc2C1)C(=O)NCC1(c2ccccn2)CCCCC1 [Example 90, {(S)-2-(1H-Indol-3-yl)-1-methyl-1-[(1-pyridin-2-yl-cyclohexylmethyl)-carbamoyl]-ethyl}-carbamic acid indan-2-yl ester] |  |  |  |  | IC50 (human NMB receptor (BB1); [2]): 0.955 µM; IC50 (human GRP receptor (BB2); [2]): > 10 µM |
| COc1ccc(C2(CNC(=O)[C@](C)(Cc3ccccc3)Nc3nc(-c4ccc([N+](=O)[O-])cc4)co3)CCCCC2)nc1 [Example 12, (S)-N-[1-(5-Methoxy-pyridin-2-yl)-cyclohexylmethyl]-2-methyl-2-[4-(4-nitro-phenyl)-oxazol-2-ylamino]-3-phenyl-propionamide] | 0.016 |  |  |  | Ki (human GRP receptor (BB2)): 2.82 µM |
| Cc1cccc(COC(=O)N[C@@](C)(Cc2c[nH]c3ccccc23)C(=O)NCC2(c3ccccn3)CCCCC2)c1 [Example 105, {(S)-2-(1H-Indol-3-yl)-1-methyl-1-[(1-pyridin-2-yl-cyclohexylmethyl)-carbamoyl]-ethyl}-carbamic acid 3-methyl-benzyl ester] |  |  |  |  | IC50 (human NMB receptor (BB1); [2]): 0.841 µM; IC50 (human GRP receptor (BB2); [2]): > 10 µM |
| CCc1coc(N[C@@](C)(Cc2c[nH]c3ccccc23)C(=O)NCC2(c3ccc(OC)cn3)CCCCC2)n1 [Example 15, (S)-2-(4-Ethyl-oxazol-2-ylamino)-3-(1H-indol-3-yl)-N-[1-(5-methoxy-pyridin-2-yl)-cyclohexylmethyl]-2-methyl-propionamide] | 0.213 | 60 to 65 |  |  | Ki (human GRP receptor (BB2)): 1.77 µM |
| C[C@@](Cc1c[nH]c2ccccc12)(Nc1nc(-c2ccc([N+](=O)[O-])cc2)co1)C(=O)NCC(=O)c1ccccc1 [Example 11, (S)-3-(1H-Indol-3-yl)-2-methyl-2-[4-(4-nitro-phenyl)-oxazol-2-ylamino]-N-(2-oxo-2-phenyl-ethyl)-propionamide] | 5.58 | 80 to 90 |  |  |  |

Now from value to compound, other results behind:

| Ki (human NMB receptor (BB1)) [µM] | melting point [°C] | IC50 (human NMB receptor (BB1); [1]) [µM] | IC50 (human GRP receptor (BB2); [1]) [µM] | SMILES | further results |
| --- | --- | --- | --- | --- | --- |
| 0.652 | 58 to 60 |  |  | C[C@@](Cc1c[nH]c2ccccc12)(NCc1ccc([N+](=O)[O-])cc1)C(=O)NCC1(c2ccccn2)CCCCC1 [Example 27, (S)-3-(1H-Indol-3-yl)-2-methyl-2-(4-nitro-benzylamino)-N-(1-pyridin-2-yl-cyclohexylmethyl)-propionamide] |  |
|  |  | 2.88 | > 10 | COc1ccc(C(=O)N[C@@](C)(Cc2c[nH]c3ccccc23)C(=O)NCC2(c3ccccn3)CCCCC2)cc1 [Example 35, N—{(S)-2-(1H-Indol-3-yl)-1-methyl-1-[(1-pyridin-2-yl-cyclohexylmethyl)-carbamoyl]-ethyl}-4-methoxy-benzamide] |  |
|  |  | 2.66 | > 10 | C[C@@](Cc1c[nH]c2ccccc12)(NC(=O)c1ncoc1-c1ccccc1)C(=O)NCC1(c2ccccn2)CCCCC1 [Example 80, 5-Phenyl-oxazole-4-carboxylic acid {(S)-2-(1H-indol-3-yl)-1-methyl-1-[(1-pyridin-2-yl-cyclohexylmethyl)-carbamoyl]-ethyl}-amide] |  |
|  |  | 1.44 | > 10 | C[C@@](Cc1c[nH]c2ccccc12)(NC(=O)c1cccs1)C(=O)NCC1(c2ccccn2)CCCCC1 [Example 64, Thiophene-2-carboxylic acid {(S)-2-(1H-indol-3-yl)-1-methyl-1-[(1-pyridin-2-yl-cyclohexylmethyl)-carbamoyl]-ethyl}-amide] |  |
|  |  | 2.56 | > 10 | COc1ccccc1C(=O)N[C@@](C)(Cc1c[nH]c2ccccc12)C(=O)NCC1(c2ccccn2)CCCCC1 [Example 46, N—{(S)-2-(1H-Indol-3-yl)-1-methyl-1-[(1-pyridin-2-yl-cyclohexylmethyl)-carbamoyl]-ethyl}-2-methoxy-benzamide] |  |
|  |  | 1.44 | > 10 | C[C@@](Cc1c[nH]c2ccccc12)(NC(=O)Cc1cccc(O)c1)C(=O)NCC1(c2ccccn2)CCCCC1 [Example 53, (S)-2-[2-(3-Hydroxy-phenyl)-ethanoylamino]-3-(1H-indol-3-yl)-2-methyl-N-(1-pyridin-2-yl-cyclohexylmethyl)-propionamide] |  |
|  |  | 1.6 | > 10 | C[C@@](Cc1c[nH]c2ccccc12)(NC(=O)c1ccc2cc[nH]c2c1)C(=O)NCC1(c2ccccn2)CCCCC1 [Example 66, 1H-Indole-6-carboxylic acid {(S)-2-(1H-indol-3-yl)-1-methyl-1-[(1-pyridin-2-yl-cyclohexylmethyl)-carbamoyl]-ethyl}-amide] |  |
|  |  | 3.23 | > 10 | C[C@@](Cc1c[nH]c2ccccc12)(NC(=O)c1ccccc1Cl)C(=O)NCC1(c2ccccn2)CCCCC1 [Example 44, 2-Chloro-N—{(S)-2-(1H-indol-3-yl)-1-methyl-1-[(1-pyridin-2-yl-cyclohexyl-methyl)-carbamoyl]-ethyl}-benzamide] |  |
|  |  | 4.58 | > 10 | C[C@@](Cc1c[nH]c2ccccc12)(NC(=O)c1ccccc1[N+](=O)[O-])C(=O)NCC1(c2ccccn2)CCCCC1 [Example 45, N—{(S)-2-(1H-Indol-3-yl)-1-methyl-1-[(1-pyridin-2-yl-cyclohexylmethyl)-carbamoyl]-ethyl}-2-nitro-benzamide] |  |
